# Tests used:
# KRAS G12S = KRAS G12S (Homo sapiens (Human), UniProt P01116+P62937, G12S); test: Ras-Raf (BRAF RBD) disruption / FRET / MOA assay, KRAS G12S; type: biochemical; conditions: Ras-Raf disruption/FRET/MOA assay; class symbols; read-out: KRAS G12S FRET data IC50
# Method in brief: (§1)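 Compound-driven ternary complex of nucleotide-loaded Ras with cyclophilin A, disrupting BRAF RBD binding. 10-point 3-fold dilution from 30 μM final, 3 h at 25° C, then anti-His Eu-W1024 (10 nM) and anti-GST allophycocyanin (50 nM) for 1.5 h. IC50 from TR-FRET ratio decrease versus DMSO.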
# [1] = system: NCI-H358 cells (K-Ras G12C); test: Potency assay: pERK in NCI-H358 cells; type: cell-based, human; conditions: Homo sapiens, NCI-H358; H358 KRAS G12C; read-out: pERK EC50
# Method in brief: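 Compounds are dosed as ten 3-fold dilutions from a 10 mM DMSO stock, in duplicate, and left on cells for 4 h at 37 °C, 5% CO2. Phospho-ERK1/2 is then quantified by AlphaLISA SureFire Ultra or In-Cell Western, and IC50 is derived from a 4-parameter sigmoid against log concentration.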
# KRAS WT = KRAS WT (Homo sapiens (Human), UniProt P01116+P62937); test: Ras-Raf (BRAF RBD) disruption / FRET / MOA assay, KRAS WT; type: biochemical; conditions: read-out: IC50* KRAS WT FRET data
# Method in brief: as §1
# KRAS G12D = KRAS G12D (Homo sapiens (Human), UniProt P01116+P62937, G12D); test: Ras-Raf (BRAF RBD) disruption / FRET / MOA assay, KRAS G12D; type: biochemical; conditions: Ras-Raf disruption/FRET/MOA assay; class symbols; read-out: KRAS G12D FRET data IC50
# Method in brief: as §1
# NCI-H358 (K-Ras G12C) = test: CellTiter-Glo cell viability assay, NCI-H358; type: cell-based, human; conditions: Homo sapiens, NCI-H358, 120 h, NCI-H358, 5-day treatment; class symbols; read-out: Additional H358 Cell Viability assay data (K-Ras G12C, IC50)
# Method in brief: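 Luminescent viability readout on day 5 after direct compound addition to plated cells; plates sat ~30 min at room temperature before reading. Values expressed as percent of mean DMSO signal, curves fit with a four-parameter logistic model.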
# Sequence of KRAS G12D (P01116-2 other isoform, or with tags, fused parts or gaps G12D): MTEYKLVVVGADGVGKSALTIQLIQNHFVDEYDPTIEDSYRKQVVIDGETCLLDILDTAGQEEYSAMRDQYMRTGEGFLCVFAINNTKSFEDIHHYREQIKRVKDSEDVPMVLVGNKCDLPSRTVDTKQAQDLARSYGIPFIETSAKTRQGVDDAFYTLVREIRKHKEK
# Sequence of KRAS G12D (P62937 whole entry): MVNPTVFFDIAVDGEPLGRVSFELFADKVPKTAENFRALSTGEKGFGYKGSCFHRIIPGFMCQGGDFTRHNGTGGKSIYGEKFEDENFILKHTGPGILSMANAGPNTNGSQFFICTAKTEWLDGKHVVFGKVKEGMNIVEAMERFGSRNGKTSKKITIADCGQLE
# Sequence of KRAS WT (P01116-2 other isoform, or with tags, fused parts or gaps): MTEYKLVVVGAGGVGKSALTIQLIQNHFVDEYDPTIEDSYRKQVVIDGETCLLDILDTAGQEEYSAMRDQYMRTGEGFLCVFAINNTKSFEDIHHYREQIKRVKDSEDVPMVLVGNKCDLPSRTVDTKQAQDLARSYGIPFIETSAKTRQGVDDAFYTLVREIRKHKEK
# Sequence of KRAS WT (P62937 whole entry): as the sequence (P62937 whole entry) above
# Sequence of KRAS G12S (P01116-2 other isoform, or with tags, fused parts or gaps G12S): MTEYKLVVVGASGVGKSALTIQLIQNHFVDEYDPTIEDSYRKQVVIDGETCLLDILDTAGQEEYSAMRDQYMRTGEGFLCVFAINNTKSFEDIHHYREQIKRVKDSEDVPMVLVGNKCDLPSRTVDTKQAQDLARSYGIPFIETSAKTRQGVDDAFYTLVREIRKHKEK
# Sequence of KRAS G12S (P62937 whole entry): as the sequence (P62937 whole entry) above
structure (smiles),measurement,setting,value
"C=CC(=O)N1CCO[C@@]2(CCN(C(=O)N(C)[C@H](C(=O)N[C@H]3Cc4nc(cs4)-c4ccc5c(c4)c(c(-c4cccnc4[C@H](C)OC)n5CC(F)(F)F)CC(C)(C)COC(=O)[C@@H]4CCCN(N4)C3=O)C(C)C)C2)C1 (atropisomer, axis not shown) [Example A594]",IC50,KRAS G12S,100 to 1000 nM
same,EC50,[1],< 5000 nM
same,IC50,KRAS WT,10 to 100 nM
same,IC50,KRAS G12D,100 to 1000 nM
same,IC50,NCI-H358 (K-Ras G12C),< 10 nM
"C=CC(=O)N1CCO[C@H]2CN(C(=O)N(C)[C@H](C(=O)N[C@H]3Cc4cccc(n4)-c4ccc5c(c4)c(c(-c4cccnc4[C@H](C)OC)n5CC(F)(F)F)CC(C)(C)COC(=O)[C@@H]4CCCN(N4)C3=O)C(C)C)C[C@H]21 (atropisomer, axis not shown) [Example A595]",IC50,KRAS G12S,1000 to 10000 nM
same,EC50,[1],< 5000 nM
same,IC50,KRAS WT,100 to 1000 nM
same,IC50,KRAS G12D,1000 to 10000 nM
same,IC50,NCI-H358 (K-Ras G12C),< 10 nM
"C=CC(=O)N1CCO[C@H]2CN(C(=O)N(C)[C@H](C(=O)N[C@H]3Cc4cccc(n4)-c4ccc5c(c4)c(c(-c4cccnc4[C@H](C)OC)n5CC)CC(C)(C)COC(=O)[C@@H]4CCCN(N4)C3=O)C(C)C)C[C@H]21 (atropisomer, axis not shown) [Example A597]",IC50,KRAS G12S,1000 to 10000 nM
same,EC50,[1],< 5000 nM
same,IC50,KRAS WT,1000 to 10000 nM
same,IC50,KRAS G12D,> 10000 nM
same,IC50,NCI-H358 (K-Ras G12C),< 10 nM
"C=CC(=O)N1CCO[C@H]2CN(C(=O)N(C)[C@H](C(=O)N[C@H]3Cc4cccc(c4)-c4ccc5c(c4)c(c(-c4cccnc4[C@H](C)OC)n5CC)CC(C)(C)COC(=O)[C@@H]4CCCN(N4)C3=O)C(C)C)C[C@H]21 (atropisomer, axis not shown) [Example A610]",IC50,KRAS G12S,1000 to 10000 nM
same,EC50,[1],< 5000 nM
same,IC50,KRAS WT,100 to 1000 nM
same,IC50,KRAS G12D,1000 to 10000 nM
same,IC50,NCI-H358 (K-Ras G12C),< 10 nM
"C=CC(=O)N1CC2(CCN2C(=O)N(C)[C@H](C(=O)N[C@H]2Cc3nc(n(C)n3)-c3ccc4c(c3)c(c(-c3cccnc3[C@H](C)OC)n4CC)CC(C)(C)COC(=O)[C@@H]3CCCN(N3)C2=O)C(C)C)C1 (atropisomer, axis not shown) [Example A612]",IC50,KRAS G12S,100 to 1000 nM
same,EC50,[1],< 5000 nM
same,IC50,KRAS WT,100 to 1000 nM
same,IC50,KRAS G12D,100 to 1000 nM
same,IC50,NCI-H358 (K-Ras G12C),100 to 1000 nM
"CCn1c(-c2cccnc2[C@H](C)OC)c2c3cc(ccc31)N1CCC[C@@H](C[C@H](NC(=O)[C@H](C(C)C)N(C)C(=O)C3(F)CCN(C(=O)C#CC(C)(C)N(C)C)CC3)C(=O)N3CCC[C@H](N3)C(=O)OCC(C)(C)C2)C1 (atropisomer, axis not shown) [Example A615]",IC50,KRAS G12S,> 10000 nM
same,EC50,[1],< 5000 nM
same,IC50,KRAS WT,> 10000 nM
same,IC50,KRAS G12D,> 10000 nM
same,IC50,NCI-H358 (K-Ras G12C),< 10 nM
"C=CC(=O)N(C)CCC1CCN(C(=O)N(C)[C@H](C(=O)N[C@H]2Cc3nc(cs3)-c3ccc4c(c3)c(c(-c3cccnc3[C@H](C)OC)n4CC)CC(C)(C)COC(=O)[C@@H]3CCCN(N3)C2=O)C(C)C)CC1 (atropisomer, axis not shown) [Example A621]",IC50,KRAS G12S,10 to 100 nM
same,EC50,[1],< 5000 nM
same,IC50,KRAS WT,10 to 100 nM
same,IC50,KRAS G12D,100 to 1000 nM
same,IC50,NCI-H358 (K-Ras G12C),< 10 nM
"CCn1c(-c2cccnc2[C@H](C)OC)c2c3cc(ccc31)-c1csc(n1)C[C@H](NC(=O)[C@H](C(C)C)N(C)C(=O)N1C[C@H]3CN(C(=O)C#CC(C)(C)N(C)C)CC[C@H]31)C(=O)N1CCC[C@H](N1)C(=O)OCC(C)(C)C2 (atropisomer, axis not shown) [Example A624]",IC50,KRAS G12S,100 to 1000 nM
same,EC50,[1],< 5000 nM
same,IC50,KRAS WT,100 to 1000 nM
same,IC50,KRAS G12D,1000 to 10000 nM
same,IC50,NCI-H358 (K-Ras G12C),< 10 nM
"CCn1c(-c2cccnc2[C@H](C)OC)c2c3cc(ccc31)-c1csc(n1)C[C@H](NC(=O)[C@H](F)COC1CN(C(=O)C#CC(C)(C)N(C)C)C1)C(=O)N1CCC[C@H](N1)C(=O)OCC(C)(C)C2 (atropisomer, axis not shown) [Example A627]",IC50,KRAS G12S,> 10000 nM
same,EC50,[1],< 5000 nM
same,IC50,KRAS WT,> 10000 nM
same,IC50,KRAS G12D,> 10000 nM
same,IC50,NCI-H358 (K-Ras G12C),< 10 nM
"C=C(C)C(=O)N1CC2(CCN(C(=O)N(C)[C@H](C(=O)N[C@H]3Cc4nc(cs4)-c4ccc5c(c4)c(c(-c4cccnc4[C@H](C)OC)n5CC)CC(C)(C)COC(=O)[C@@H]4CCCN(N4)C3=O)C(C)C)CC2)C1 (atropisomer, axis not shown) [Example A651]",IC50,KRAS G12S,100 to 1000 nM
same,EC50,[1],< 5000 nM
same,IC50,KRAS WT,100 to 1000 nM
same,IC50,KRAS G12D,100 to 1000 nM
same,IC50,NCI-H358 (K-Ras G12C),10 to 100 nM

# From patent US11566007B2, “Ras inhibitors” (Revolution Medicines, Inc., priority 2019, dated 2023)
